For assay [1], the target named is T1, 20S Human Erythrocyte Proteasome (HEP) (Homo sapiens, UniProt P20618+P28074).
T1 construct: 20S Human Erythrocyte Proteasome (HEP), purchased from Immatics Biotechnologies Inc; purchased Immatics Biotechnologies Inc., Tübingen, Germany; host or cells: human erythrocytes (natural source)
Put plainly: Chymotrypsin-like activity of 20S Human Erythrocyte Proteasome (HEP), IC50 determination. Format: biochemical. To be noted: assay of Example C, inhibition of HEP. In short, it runs like this:
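20S proteasome at 0.2 μg/mL (about 0.6 nM catalytic sites) in 20 mM Tris with 0.04% SDS, preincubated 15 min at 37° C with inhibitor before Suc-LLVY-AMC (100 μM final). AMC fluorescence read in the linear range; triplicates, IC50 from concentration series.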

In assay [2] the target is T2, proteasome in Molt-4 cells (human leukemia) (Homo sapiens, UniProt P20618+P28074).
T2 sequence (P28074 60-263): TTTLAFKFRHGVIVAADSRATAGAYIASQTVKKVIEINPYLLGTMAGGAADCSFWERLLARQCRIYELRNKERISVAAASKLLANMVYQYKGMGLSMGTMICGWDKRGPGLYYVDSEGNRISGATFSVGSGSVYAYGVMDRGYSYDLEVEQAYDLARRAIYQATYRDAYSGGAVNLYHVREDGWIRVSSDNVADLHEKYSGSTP
T2 sequence (P20618 29-241): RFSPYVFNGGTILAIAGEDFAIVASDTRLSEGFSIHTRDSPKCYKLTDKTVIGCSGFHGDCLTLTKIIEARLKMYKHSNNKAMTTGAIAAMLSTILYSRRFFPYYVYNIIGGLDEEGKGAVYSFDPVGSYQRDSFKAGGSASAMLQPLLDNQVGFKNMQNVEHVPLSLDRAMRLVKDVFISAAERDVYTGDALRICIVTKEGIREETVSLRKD
Format: cell-based. To be noted: assay of Example E, inhibition of MOLT4; read-out: MOLT4 (EC50). The method, boiled down: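 Intact Molt-4 cells (6×10^6 cells/mL) in HEPES-buffered saline were preincubated with inhibitor 15 min at 37 °C, then given cell-permeable MeOSuc-FLF-AFC at 25 μM final.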

The IC50 is the concentration that gives 50% inhibition. One may read the EC50 as the concentration giving half of the maximal effect.

A value given as a limit tells only on which side of the number the result lay.

Take `Cc1ccc(C(=O)N[C@@H](CCCNC(=N)N[N+](=O)[O-])C(=O)N[C@@H](CC(C)C)B(O)O)s1` [D.7.12, Boronic acid, [(1R)-1-[[(2S)-5-[[imino(nitroamino)methyl]amino]-2-[(5-methylthiophene-2-carbonyl)amino]-1-oxopentyl]amino]-3-methylbutyl]]: the IC50 in assay [1] is less than 0.01 µM. In addition, in assay [2], the EC50 was greater than 10 µM.
`Cc1ccc(C)c(OCCCC(C)(C)C(=O)N[C@@H](CCCNC(=N)N[N+](=O)[O-])C(=O)N[C@@H](CC(C)C)B(O)O)c1` [D.7.17, Boronic acid, [(1R)-1-[[(2S)-5-[[imino(nitroamino)methyl]amino]-2-[[5-(2,5-dimethylphenoxy)-2,2-dimethylpentanoyl]amino]-1-oxopentyl]amino]-3-methylbutyl]] came in with an IC50 in assay [1] of less than 0.01 µM. Moreover, in assay [2], the EC50 fell in the range of 0.2 to 2 µM.
Consider `CC(C)C[C@H](NC(=O)[C@H](CCCNC(=N)N[N+](=O)[O-])NC(=O)CCCc1cccs1)B(O)O` [D.7.19, Boronic acid, [(1R)-1-[[(2S)-5-[[imino(nitroamino)methyl]amino]-2-[[4-(thiophen-2-yl)butanoyl]amino]-1-oxopentyl]amino]-3-methylbutyl]], for which the IC50 in assay [1] is less than 0.01 µM. Also, the EC50 in assay [2] fell in the range of 2 to 10 µM.
The compound `CC(C)C[C@H](NC(=O)[C@H](CCCNC(=N)N[N+](=O)[O-])NC(=O)CCCCc1ccc(F)cc1)B(O)O` [D.7.20, Boronic acid, [(1R)-1-[[(2S)-5-[[imino(nitroamino)methyl]amino]-2-[[5-(4-fluorophenyl)pentanoyl]amino]-1-oxopentyl]amino]-3-methylbutyl]] displayed an IC50 in assay [1] of less than 0.01 µM. Besides, the half-maximal effective concentration (EC50) in assay [2] lay within 2 to 10 µM.
The corresponding values for `CCCCC(C)(C)C(=O)N[C@@H](CCCNC(=N)N[N+](=O)[O-])C(=O)N[C@@H](CC(C)C)B(O)O` [D.7.21, Boronic acid, [(1R)-1-[[(2S)-5-[[imino(nitroamino)methyl]amino]-2-[(2,2-dimethylhexanoyl)amino]-1-oxopentyl]amino]-3-methylbutyl]] are less than 0.01 µM and 2 to 10 µM.
The corresponding values for `CC(C)C[C@H](NC(=O)[C@H](CCCNC(=N)N[N+](=O)[O-])NC(=O)/C=C/c1cccs1)B(O)O` [D.7.23, Boronic acid, [(1R)-1-[[(2S)-5-[[imino(nitroamino)methyl]amino]-2-[[3-(thiophen-2-yl)propenoyl]amino]-1-oxopentyl]amino]-3-methylbutyl]] are less than 0.01 µM and greater than 10 µM.
`CC(C)C[C@H](NC(=O)[C@H](CCCNC(=N)N[N+](=O)[O-])NC(=O)CCCCC1CCCCC1)B(O)O` [D.7.24, Boronic acid, [(1R)-1-[[(2S)-5-[[imino(nitroamino)methyl]amino]-2-[(5-cyclohexylpentanoyl)amino]-1-oxopentyl]amino]-3-methylbutyl]] showed an IC50 in assay [1] of less than 0.01 µM. In assay [2], the EC50 is 0.2 to 2 µM.
In assay [1], `CC(C)=CCC[C@@H](C)CC(=O)N[C@@H](CCCNC(=N)N[N+](=O)[O-])C(=O)N[C@@H](CC(C)C)B(O)O` [D.7.25, Boronic acid, [(1R)-1-[[(2S)-5-[[imino(nitroamino)methyl]amino]-2-[((3R)-3,7-dimethyloct-6-enoyl)amino]-1-oxopentyl]amino]-3-methylbutyl]] showed an IC50 of less than 0.01 µM. The EC50 in assay [2] is 2 to 10 µM.
In assay [1], `Cc1ccc(CSCCC(=O)N[C@@H](CCCNC(=N)N[N+](=O)[O-])C(=O)N[C@@H](CC(C)C)B(O)O)cc1` [D.7.26, Boronic acid, [(1R)-1-[[(2S)-5-[[imino(nitroamino)methyl]amino]-2-[[3-[(4-methylbenzyl)sulfanyl]propanoyl]amino]-1-oxopentyl]amino]-3-methylbutyl]] registered an IC50 of less than 0.01 µM. Moreover, the EC50 in assay [2] lay in the range of 2 to 10 µM.
Turning to `CC(C)C[C@H](NC(=O)[C@H](CCCNC(=N)N[N+](=O)[O-])NC(=O)c1ccc(-n2cccc2)cc1)B(O)O` [D.7.27, Boronic acid, [(1R)-1-[[(2S)-5-[[imino(nitroamino)methyl]amino]-2-[(4-pyrrol-1-ylbenzoyl)amino]-1-oxopentyl]amino]-3-methylbutyl]], the IC50 in assay [1] was less than 0.01 µM. Besides, the EC50 in assay [2] is 2 to 10 µM.
Turning to `COc1ccc(F)cc1C(=O)N[C@@H](CCCNC(=N)N[N+](=O)[O-])C(=O)N[C@@H](CC(C)C)B(O)O` [D.7.28, Boronic acid, [(1R)-1-[[(2S)-5-[[imino(nitroamino)methyl]amino]-2-[(5-fluoro-2-methoxybenzoyl)amino]-1-oxopentyl]amino]-3-methylbutyl]], in assay [1], the IC50 was less than 0.01 µM. In addition, the EC50 in assay [2] was greater than 10 µM.
In assay [1], `CC(C)C[C@H](NC(=O)[C@H](CCCNC(=N)N[N+](=O)[O-])NC(=O)C1CC1)B(O)O` [D.7.30, Boronic acid, [(1R)-1-[[(2S)-5-[[imino(nitroamino)methyl]amino]-2-[(cyclopropanecarbonyl)amino]-1-oxopentyl]amino]-3-methylbutyl]] gave an IC50 of less than 0.1 µM. Also, the EC50 in assay [2] was greater than 10 µM.
The corresponding values for `CCOc1ccc(C(=O)N[C@@H](CCCNC(=N)N[N+](=O)[O-])C(=O)N[C@@H](CC(C)C)B(O)O)cc1` [D.7.31, Boronic acid, [(1R)-1-[[(2S)-5-[[imino(nitroamino)methyl]amino]-2-[(4-ethoxybenzoyl)amino]-1-oxopentyl]amino]-3-methylbutyl]] are less than 0.01 µM and greater than 10 µM.
The corresponding values for `CC(C)C[C@H](NC(=O)[C@H](CCCNC(=N)N[N+](=O)[O-])NC(=O)/C=C/c1ccc(Br)cc1)B(O)O` [D.7.32, Boronic acid, [(1R)-1-[[(2S)-5-[[imino(nitroamino)methyl]amino]-2-[((E)-3-(4-bromophenyl)prop-2-enoyl)amino]-1-oxopentyl]amino]-3-methylbutyl]] are less than 0.01 µM and 2 to 10 µM.
The corresponding values for `COc1ccc2cc([C@H](C)C(=O)N[C@@H](CCCNC(=N)N[N+](=O)[O-])C(=O)N[C@@H](CC(C)C)B(O)O)ccc2c1` [D.7.33, Boronic acid, [(1R)-1-[[(2S)-5-[[imino(nitroamino)methyl]amino]-2-[[(2S)-2-(6-methoxynaphthalen-2-yl)-propanoyl]amino]-1-oxopentyl]amino]-3-methylbutyl]] are less than 0.01 µM and 2 to 10 µM.
In assay [1], `COc1ccc(C(=O)N[C@@H](CCCNC(=N)N[N+](=O)[O-])C(=O)N[C@@H](CC(C)C)B(O)O)cc1F` [D.7.35, Boronic acid, [(1R)-1-[[(2S)-5-[[imino(nitroamino)methyl]amino]-2-[(3-fluoro-4-methoxybenzoyl)amino]-1-oxopentyl]amino]-3-methylbutyl]] displayed an IC50 of less than 0.01 µM. Also, the EC50 in assay [2] was greater than 10 µM.
The compound `CC(C)C[C@H](NC(=O)[C@H](CCCNC(=N)N[N+](=O)[O-])NC(=O)/C=C/c1ccc2ccccc2c1)B(O)O` [D.7.36, Boronic acid, [(1R)-1-[[(2S)-5-[[imino(nitroamino)methyl]amino]-2-[[(E)-3-(naphthalen-2-yl)prop-2-enoyl]amino]-1-oxopentyl]amino]-3-methylbutyl]] had an IC50 in assay [1] of less than 0.01 µM. Further, in assay [2], the EC50 is 2 to 10 µM.
`Cc1cc(C(=O)N[C@@H](CCCNC(=N)N[N+](=O)[O-])C(=O)N[C@@H](CC(C)C)B(O)O)ccc1F` [D.7.37]: the IC50 in assay [1] is less than 0.01 µM. Besides, the EC50 in assay [2] is greater than 10 µM.
The compound `CC(C)C[C@H](NC(=O)[C@H](CCCNC(=N)N[N+](=O)[O-])NC(=O)CCCNC(=O)OCC1c2ccccc2-c2ccccc21)B(O)O` [D.7.38, Boronic acid, [(1R)-1-[[(2S)-5-[[imino(nitroamino)methyl]amino]-2-[[[[[(9H-fluoren-9-yl)methoxy]carbonyl]amino]butanoyl]amino]-1-oxopentyl]amino]-3-methylbutyl]] gave an IC50 in assay [1] of less than 0.01 µM. Moreover, the EC50 in assay [2] lay in the range of 0.2 to 2 µM.
`CC(C)C[C@H](NC(=O)[C@H](CCCNC(=N)N[N+](=O)[O-])NC(=O)c1ccc(Br)cc1)B(O)O` [D.7.39, Boronic acid, [(1R)-1-[[(2S)-5-[[imino(nitroamino)methyl]amino]-2-[(4-bromobenzoyl)amino]-1-oxopentyl]amino]-3-methylbutyl]] had an IC50 in assay [1] of less than 0.01 µM. In assay [2], the EC50 lay in the range of 2 to 10 µM.
The compound `CCCCCCCCCCC(=O)N[C@@H](CCCNC(=N)N[N+](=O)[O-])C(=O)N[C@@H](CC(C)C)B(O)O` [D.7.41, Boronic acid, [(1R)-1-[[(2S)-5-[[imino(nitroamino)methyl]amino]-2-[(undecanoyl)amino]-1-oxopentyl]amino]-3-methylbutyl]] yielded an IC50 in assay [1] of less than 0.01 µM. Besides, in assay [2], the EC50 is less than 0.2 µM.
Regarding `CC(C)C[C@H](NC(=O)[C@H](CCCNC(=N)N[N+](=O)[O-])NC(=O)CCCCCCCCCCC#N)B(O)O` [D.7.60, Boronic acid, [(1R)-1-[[(2S)-5-[[imino(nitroamino)methyl]amino]-2-[(11-cianoundecanoyl)amino]-1-oxopentyl]amino]-3-methylbutyl]], in assay [1], the IC50 is less than 0.01 µM. For the same compound, in assay [2], the EC50 fell in the range of 2 to 10 µM.

The record behind these values is patent US8546608B2, “Proteasome inhibitors and methods of using the same” (Cephalon, Inc., priority 2003, dated 2013).
